Experimental data from patent publication US10689414B2 (Agios Pharmaceuticals, Inc., priority 2013, dated 2020).

Test system: U87MG cells
Experiment: Cellular assay, inhibition of 2-HG production in U87MG cells
Type: cell-based
Settings: Homo sapiens, U-87 MG, 48 h
Method: Cells (HT1080 or U87MG) are grown in T125 flasks in DMEM containing 10% FBS, 1× penicillin/streptomycin and 500 ug/mL G418 (present in U87MG cells only). They are harvested by trypsin and seeded into 96 well white bottom plates at a density of 5000 cell/well in 100 ul/well in DMEM with 10% FBS. […] Cells are incubated overnight at 37° C. in 5% CO2. The next day test compounds are made up at 2× the final concentration and 100 ul are added to each cell well. The final concentration of DMSO is 0.2% and the DMSO control wells are plated in row G. The plates are then placed in the incubator for 48 hours. […] The cell plate is placed back in the incubator for another 24 hours. At 72 hours post compound addition, 10 mL/plate of Promega Cell Titer Glo reagent is thawed and mixed. The cell plate is removed from the incubator and allowed to equilibrate to room temperature. Then 100 ul of Promega Cell Titer Glo reagent is added to each well of media. The cell plate is then placed on an orbital shaker for 10 minutes and then allowed to sit at room temperature for 20 minutes. The plate is then read for luminescence with an integration time of 500 ms.

SMILES | IC50
CN(C)c1cccc(N(C(=O)[C@@H]2CCC(=O)N2c2cc(C#N)ccn2)[C@H](C(=O)NC2CC(F)(F)C2)c2ccccc2Cl)c1 [Compound 161, (S)—N—((S)-1-(2-Chlorophenyl)-2-(3,3-difluorocyclobutylamino)-2-oxoethyl)-1-(4-cyanopyri-din-2-yl)-N-(3-(dimethylamino)phenyl)-5-oxopyrrolidine-2-carboxamide] | < 100 nM
O=C(NC1CC(F)(F)C1)[C@H](c1ccccc1Cl)N(C(=O)[C@@H]1COC(=O)N1c1ncccn1)c1cccc(F)c1 [Compound 9, (S)—N—((S)-1-(2-chloro-phenyl)-2-(3,3-difluorocyclo-butylamino)-2-oxoethyl)-N-(3-fluoro-phenyl)-2-oxo-3-(pyrimidin-2-yl)oxazolidine-4-carboxamide] | < 100 nM
CS(=O)(=O)c1cccc(N(C(=O)[C@@H]2CCC(=O)N2c2nccc(C#N)n2)[C@H](C(=O)NC2CCC(F)(F)CC2)c2ccccc2Cl)c1 [Compound 103, (S)—N—((S)-1-(2C)-2-((4,4-difluorocyclohexyl)amino)-2-oxoethyl)-1-(4-cyanopyrimidin-2-yl)-N-(3-(methylsulfonyl)phenyl)-5-oxopyrrolidine-2-carboxamide] | 100 to 500 nM
N#Cc1ccnc(N2C(=O)CC[C@H]2C(=O)N(c2cccc(CCO)c2)[C@H](C(=O)NC2CC(F)(F)C2)c2ccccc2Cl)c1 [Compound 160, (S)—N—((S)-1-(2-Chlorophenyl)-2-((3,3-difluorocyclobutyl)amino)-2-oxoethyl)-1-(4-cyanopyri-din-2-yl)-N-(3-(2-hydroxyethyl)phenyl)-5-oxopyrrolidine-2-carboxamide] | < 100 nM
CC(C)(C)OC(=O)N1CC(=O)N(c2cc(C#N)ccn2)[C@H](C(=O)N(c2cccc(F)c2)[C@H](C(=O)NC2CC(F)(F)C2)c2ccccc2Cl)C1 [Compound 89, (3S)-tert-Butyl 3-((1-(2-chlorophenyl)-2-((3,3-difluorocyclobutyl)amino)-2-oxoethyl)(3-fluorophenyl)carbamoyl)-4-(4-cyanopyridin-2-yl)-5-oxopiperazine-1-carboxylate] | < 100 nM
N#Cc1ccnc(N2C(=O)CC[C@H]2C(=O)N(c2cc(F)cc(F)c2)C(C(=O)NC2CC(F)(F)C2)c2cccc(Cl)c2Cl)c1 (stereo partly drawn) [Compound 195, (2S)-1-(4-Cyanopyridin-2-yl)-N-(1-(2,3-dichlorophenyl)-2-(3,3-difluoro-cyclobutylamino)-2-oxoethyl)-N-(3,5-difluorophenyl)-5-oxopyrrolidine-2-carboxamide] | < 100 nM
N#Cc1cc(C#N)cc(N(C(=O)[C@@H]2CCC(=O)N2c2cc(C#N)ccn2)[C@H](C(=O)NC2CC(F)(F)C2)c2ccccc2Cl)c1 [Compound 153, (S)—N—((S)-1-(2-Chlorophenyl)-2-((3,3-difluorocyclobutyl)amino)-2-oxoethyl)-1-(4-cyanopyridin-2-yl)-N-(3,5-dicyanophenyl)-5-oxopyrrolidine-2-carboxamide] | < 100 nM
N#Cc1ccnc(N2C(=O)CN(C3CC3)C[C@H]2C(=O)N(c2cc(F)cc(F)c2)[C@H](C(=O)NC2CC(F)(F)C2)c2ccccc2Cl)c1 [Compound 106, (S)—N—((S)-1-(2-chlorophenyl)-2-((3,3-difluorocyclobutyl)amino)-2-oxoethyl)-1-(4-cyanopyridin-2-yl)-4-cyclopropyl-N-(3,5-difluorophenyl)-6-oxopiperazine-2-carboxamide] | < 100 nM
N#Cc1ccnc(N2C(=O)[C@H](O)C[C@H]2C(=O)N(c2cccc(F)c2)[C@H](C(=O)NC2CC(F)(F)C2)c2ccccc2Cl)c1 [Compound 113, (2S,4R)—N—((S)-1-(2-Chlorophenyl)-2-(3,3-difluorocyclobutylamino)-2-oxoethyl)-1-(4-cyano-pyridin-2-yl)-N-(3-fluorophenyl)-4-hydroxy-5-oxopyrrolidine-2-carboxamide] | < 100 nM
CCOC(=O)CN1C[C@@H](C(=O)N(c2cccc(F)c2)[C@H](C(=O)NC2CC(F)(F)C2)c2ccccc2Cl)N(c2cc(C#N)ccn2)C1=O [Compound 94, Ethyl 2-((4S)-4-((1-(2-chlorophenyl)-2-((3,3-difluorocyclobutyl)amino)-2-oxoethyl)(3-fluorophenyl)carbamoyl)-3-(4-cyanopyridin-2-yl)-2-oxoimidazolidin-1-yl)acetate] | < 100 nM
N#Cc1ccnc(N2C(=O)CC[C@H]2C(=O)N(c2cccc(CO)c2)[C@H](C(=O)NC2CC(F)(F)C2)c2ccccc2Cl)c1 [Compound 131, (S)—N—((S)-1-(2-Chlorophenyl)-2-(3,3-difluorocyclobutylamino)-2-oxoethyl)-1-(4-cyanopyridin-2-yl)-N-(3-(hydroxymethyl)phenyl)-5-oxopyrrolidine-2-carboxamide] | < 100 nM
O=C(NC1CCC(F)(F)CC1)[C@H](c1ccccc1Cl)N(C(=O)[C@@H]1CCC(=O)N1c1ncccn1)c1cccc(F)c1 [Compound 4, (S)—N—((S)-1-(2-chlorophenyl)-2-((4,4-difluorocyclohexyl)amino)-2-oxoethyl)-N-(3-fluoro-phenyl)-5-oxo-1-(pyrimidin-2-yl)pyrrolidine-2-carboxamide] | < 100 nM
N#Cc1ccnc(N2C(=O)CC[C@H]2C(=O)N(c2cccc3[nH]cnc23)C(C(=O)NC2CCC(F)(F)CC2)c2ccccc2Cl)c1 (stereo partly drawn) [Compound 141, (2S)—N-(1H-benzo[d]imidazol-7-yl)-N-(1-(2-chlorophenyl)-2-((4,4-difluorocyclohexyl)amino)-2-oxoethyl)-1-(4-cyanopyridin-2-yl)-5-oxopyrrolidine-2-carboxamide] | < 100 nM
N#Cc1ccnc(N2C(=O)NC[C@H]2C(=O)N(c2cccc(F)c2)[C@H](C(=O)NC2CC(F)(F)C2)c2ccccc2Cl)c1 [Compound 80, (S)—N—((S)-1-(2-chlorophenyl)-2-(3,3-difluorocyclobutylamino)-2-oxoethyl)-3-(4-cyanopyridin-2-yl)-N-(3-fluorophenyl)-2-oxoimidazolidine-4-carboxamide] | < 100 nM
N#Cc1ccnc(N2C(=O)OCC[C@H]2C(=O)N(c2cncc(F)c2)[C@H](C(=O)NC2CCC(F)(F)CC2)c2ccccc2Cl)c1 [Compound 137, (S)—N—((S)-1-(2-Chlorophenyl)-2-((4,4-difluorocyclohexyl)amino)-2-oxoethyl)-3-(4-cyano-pyridin-2-yl)-N-(5-fluoropyridin-3-yl)-2-oxo-1,3-oxazinane-4-carboxamide] | < 100 nM
Cc1ccc(N2C(=O)CC[C@H]2C(=O)N(c2cccc(F)c2)[C@H](C(=O)NC2CC(F)(F)C2)c2ccccc2Cl)nc1 [Compound 21] | 100 to 500 nM
CC(=O)N1CC(=O)N(c2cc(C#N)ccn2)[C@H](C(=O)N(c2cccc(F)c2)[C@H](C(=O)NC2CC(F)(F)C2)c2ccccc2Cl)C1 [Compound 92, (S)-4-Acetyl-N—((S)-1-(2-chlorophenyl)-2-(3,3-difluorocyclobutylamino)-2-oxoethyl)-1-(4-cyanopyridin-2-yl)-N-(3-fluorophenyl)-6-oxopiperazine-2-carboxamide] | < 100 nM
N#Cc1ccnc(N2C(=O)OCC[C@H]2C(=O)N(c2cc(F)cc(F)c2)[C@H](C(=O)NC2CC(F)(F)C2)c2ccccc2Cl)c1 [Compound 133, (S)—N—((S)-1-(2-Chlorophenyl)-2-((3,3-difluorocyclobutyl)amino)-2-oxoethyl)-3-(4-cyanopyridin-2-yl)-N-(3,5-difluorophenyl)-2-oxo-1,3-oxazinane-4-carboxamide] | < 100 nM
CS(=O)(=O)c1cccc(N(C(=O)[C@@H]2CCC(=O)N2c2nccc(C#N)n2)C(C(=O)NC2CC(F)(F)C2)c2ccccc2Cl)c1 (mixture of isomers) [Compound 102, (2S)—N-(1-(2-Chlorophenyl)-2-((3,3-difluorocyclobutyl)amino)-2-oxoethyl)-1-(4-cyanopyrimidin-2-yl)-N-(3-(methylsulfonyl)phenyl)-5-oxopyrrolidine-2-carboxamide] | 100 to 500 nM
N#Cc1ccnc(N2C(=O)CC[C@H]2C(=O)N(c2cccc(C3CC3)c2)[C@H](C(=O)NC2CC(F)(F)C2)c2ccccc2Cl)c1 [Compound 173, (S)—N—((S)-1-(2-Chlorophenyl)-2-((3,3-difluorocyclobutyl)amino)-2-oxoethyl)-1-(4-cyanopyri-din-2-yl)-N-(3-cyclopropylphenyl)-5-oxopyrrolidine-2-carboxamide] | < 100 nM
N#Cc1ccnc(N2C(=O)CC[C@H]2C(=O)N(c2cccc(F)c2)[C@H](C(=O)NC2CC(F)(F)C2)c2ccccc2Cl)c1 [Compound 37] | < 100 nM
N#Cc1ccnc(N2C(=O)[C@@H](O)C[C@H]2C(=O)N(c2cccc(F)c2)[C@H](C(=O)NC2CC(F)(F)C2)c2ccccc2Cl)c1 [Compound 118, (2S,4S)—N—((S)-1-(2-Chlorophenyl)-2-(3,3-difluorocyclobutylamino)-2-oxoethyl)-1-(4-cyano-pyridin-2-yl)-N-(3-fluorophenyl)-4-hydroxy-5-oxopyrrolidine-2-carboxamide] | < 100 nM
N#Cc1ccnc(N2C(=O)CC[C@H]2C(=O)N(c2cccc(F)c2)[C@H](C(=O)NC2CC(F)(F)C2)c2ccccc2F)c1 [Compound 149, (S)-1-(4-Cyanopyridin-2-yl)-N—((S)-2-((3,3-difluorocyclobutyl)amino)-1-(2-fluorophenyl)-2-oxoethyl)-N-(3-fluorophenyl)-5-oxopyrrolidine-2-carboxamide] | < 100 nM
N#Cc1ccnc(N2C(=O)[C@H](O)C[C@H]2C(=O)N(c2cccc(F)c2)[C@H](C(=O)NC2CCC(F)(F)CC2)c2ccccc2Cl)c1 [Compound 121, (2S,4R)—N—((S)-1-(2-Chlorophenyl)-2-((4,4-difluorocyclohexyl)amino)-2-oxoethyl)-1-(4-cyanopyridin-2-yl)-N-(3-fluorophenyl)-4-hydroxy-5-oxopyrrolidine-2-carboxamide] | < 100 nM
